Laboratory results from PMC6095626, “Screening of the Pathogen Box for inhibitors with dual efficacy against Giardia lamblia and Cryptosporidium parvum” (PLoS Neglected Tropical Diseases, 2018).

Legend:
[1] = tested on: C. parvum (UGA1 Nluc expressing strain in HCT-8 cells); experiment: microbe, parasite or virus in culture; assay type: cell-based, Cryptosporidium parvum; conditions: for Crypto (10 uM) Mean % inhibition: initial Pathogen Box screen, single concentration 10 µM, inhibition compared to DMSO wells
Protocol: Growth inhibition and EC50 determination assays were performed using UGA1 Nluc expressing C. parvum strain in HCT-8 cells (ATCC^©, Manassas, VA) as previously described. HCT-8 cells were inoculated onto 96-well plates and allowed to grow for 48 hours to 90–100% confluence and then treated with single concentration (10 μM) or serially diluted compounds prior to oocyst infection. C. parvum oocysts were incubated for 10 minutes in 10% bleach at room temperature and then washed with DPBS. […] The cell monolayers were lysed for 1 hour before adding Nano-Glo® luciferase reagent (Promega, Madison, WI), and measuring relative luminescence units (RLU) in an EnVision Plate Reader (Perkin Elmer, Waltham, MA). Several parameters, including reproducibility and reliability, were previously evaluated to optimize this assay for low and high-throughput (HTP) screening of small molecule compounds against C. parvum. EC50 values were calculated using Prism 7 software (GraphPad Software, San Diego, CA).
C. parvum screening against the Pathogen Box compounds was performed as previously described starting at a concentration of 10 μM [23].

[2] = tested on: G. lamblia trophozoites (luciferase expressing, WBC6); experiment: microbe, parasite or virus in culture; assay type: cell-based, Giardia lamblia; conditions: initial Pathogen Box screen, single concentration 16 µM, inhibition compared to DMSO wells
Protocol: Trophozoites were harvested by chilling cultures on ice for 30 minutes and plated by adding 150 μL per well at a concentration of 250,000 cells/mL. Metronidazole (Sigma, St. Louis, MO) was used as a control and was serially diluted 1:2 from 40 μM to 0.04 μM and 150 μL was added to the 150 μL of the G. lamblia trophozoites. Plates were covered in plastic low-evaporation lids, sealed in individual anaerobic BD GasPak Bio-Bags (Becton Dickinson, San Jose, CA) and incubated at 37 °C for 24 hours. […] A duplicate plate was concurrently set up and assayed using a MOXI Z Mini Automated Cell Counter Kit (Orflo, Ketchum, ID). Results obtained from the bioluminescence assay and the MOXI counter data were compared to evaluate their correlation to each another. Albendazole (Sigma, St. Louis, MO), an alternative giardiasis therapeutic, was assayed in concentrations from 4 μM to 0.004 μM with only the luciferase expressing G. lamblia cells. […]

SMILES | C. parvum cell growth inhibition in the initial screen ([1]; 10 μM, 48 hours) [%] | EC50 ([1]; Nluc C. parvum in HCT-8 cells, 48 hours, read-out: C. parvum EC50) [µM] | Crypto (10 uM) Mean % inhibition [1] | Giardia (16 uM) Mean % inhibition [2]
Cc1ccc2c(c1C)NC(=O)C21NN=C(c2ccccc2)S1 (stereo not drawn) [MMV019189] | ≥ 95 | 2.52 | 95% | X* (Mean or standard deviation are negative but not significantly different from the control to be a growth promoter)
COc1cc(NC(=O)Cc2nn(C)c(=O)c3ccccc23)ccc1Cl [MMV676053] |  |  | 84% | X* (Mean or standard deviation are negative but not significantly different from the control to be a growth promoter)
O=C(Nc1ccccc1-c1nc2c(C(=O)O)cccc2o1)c1ccccc1 [MMV676162] |  |  | 48% | 1.55%
Nc1ncnc2c1ncn2[C@@H]1O[C@H](COS(=O)(=O)NC(=O)c2ccccc2O)[C@@H](O)[C@H]1O [MMV687700] |  |  | X* (Mean or standard deviation are negative but not significantly different from the control to be a growth promoter) | 15%
CCOc1ccc(-c2nc(CNCCc3ccc(F)cc3)cs2)cc1 [MMV688938] |  |  | X* (Mean or standard deviation are negative but not significantly different from the control to be a growth promoter) | 65%
COc1cccc(OCC(=O)c2ccc(Br)cc2)c1 [MMV676379] |  |  | 55% | 80%
COc1cccc2c(C)nc(N=C(N)N)nc12 [MMV000907] |  |  | 67% | 68%
CCN(CC)S(=O)(=O)c1ccc(C(=O)Nc2cc(C)nn2-c2nc(C)c(C)c(=O)[nH]2)cc1 [MMV595321] |  |  | 92% | 26%
O=C(c1cc2ccccc2o1)N1CCN(Cc2ccc3c(c2)OCO3)CC1 [MMV676520] |  |  | 51% | 0.776%
c1coc(CNc2nc(N3CCCCC3)nc3ccccc23)c1 [MMV676401] |  |  | 48% | 76%
COC(=O)c1c(NC(=O)c2c(F)c(F)c(F)c(F)c2F)sc2c1CCCCC2 [MMV461553] |  |  | 49% | 33%
O=C(Nc1c(O)cccc1-c1nc2c(C(=O)O)cccc2o1)c1cc(-c2ccccc2)on1 [MMV676008] |  |  | X* (Mean or standard deviation are negative but not significantly different from the control to be a growth promoter) | 41%
Brc1c(-c2ccc3c(c2)OCO3)nc2ncccn12 [MMV676377] |  |  | X* (Mean or standard deviation are negative but not significantly different from the control to be a growth promoter) | 40%
CS(=O)(=O)c1ccccc1C(=O)N(Cc1ccccc1)c1ccccc1 [MMV688798] |  |  | 46% | 9%
Cc1[nH]c2cc(F)cc(F)c2c(=O)c1-c1ccc(Oc2ccc(OC(F)(F)F)cc2)cc1 [MMV671636] |  |  | X* (Mean or standard deviation are negative but not significantly different from the control to be a growth promoter) | 18%
O=C(Nc1cnc2ccccc2c1)c1cccc(-n2cnnn2)c1 [MMV084864] |  |  | 34% | 63%
CC1COC(Cn2cncn2)(c2ccc(Oc3ccc(Cl)cc3)cc2Cl)O1 (stereo not drawn) [MMV688943] |  |  | 46% | 81%
COc1ccc(Nc2ccccc2NC(=O)c2ccc(=O)[nH]c2)cc1 [MMV676554] |  |  | 61% | 21%
CCC(NC(=O)c1ccccc1NC(=O)c1ccc(C)cc1)C(=O)OC (stereo not drawn) [MMV019551] |  |  | 23% | 5.53%
CN1CCC(c2cc(-c3ccncc3)c(-c3ccc(F)cc3)[nH]2)CC1 [MMV688703] |  |  | 84% | 18%
